# Experimental data as given in patent publication US8334261B2, “Osteopenia animal model” (Oriental Yeast Co., Ltd., priority 2006, dated 2012).
# Key:
# [1] = tested on: 7-week-old female C57BL/6N mice; assay: GST-RANKL administration test (57 and 426 nmol); type: in vivo, mouse
# Experimental: GST-RANKL was intraperitoneally administered 3 times to groups of 7-week-old female C57BL/6N mice (10 individuals each) at doses of 57 nmol (low dose) and 426 nmol (high dose) every 24 hours. Exsanguination was performed 1.5 hours after the 3rd administration. A group to which PBS was administered in the same manner as above was used as a control group for comparison.
# The exsanguinated blood was subjected to measurement of serum bone resorption parameters (calcium, CTx, TRAP-5b) and serum osteogenesis parameters (osteocalcin and alkaline phosphatase (ALP)). Calcium was measured by the OCPC method (WAKO, 272-21801). CTx (Nordic Bioscience Diagnostics), TRAP-5b (IDS Ltd, SB-TR103), and osteocalcin (Biomedical Technologies Inc.) were measured by ELISA. ALP was measured by the Bessey-Lowry method (WAKO, 274-04401).
# The following organs were collected from each exsanguinated mouse: the femur, the tibia, the cerebrum, the lungs, the heart, the liver, the thymus, the spleen, the kidneys, and the skin. Naturally occurring lesions were observed by HE staining of the cerebrum, the lungs, the heart, the liver, the thymus, the spleen, the kidneys, and the skin.
# Regarding the femur, the cancellous bone was subjected to bone density measurement with the use of pQCT at points 0.6 mm, 0.8 mm, and 1.0 mm from the distal growth plate on the proximal side at the distal end of the femur. Regarding the tibia, tibia sections were prepared for bone morphology measurement. Measurement values were compared with those for a control group by the Dunnett method for testing.
# [2] = tested on: 7-week-old female C57BL/6N mice; assay: Single-dose administration of GST-RANKL; type: in vivo, mouse; details: for femur bone density decrease vs control: single dose
# Experimental: The bone resorption markers and the osteogenesis markers in the serum were measured 12, 24, and 48 hours thereafter. Blood sampling was carried out before and immediately after GST-RANKL administration and 2, 4, 8, 12, 24, 48, and 72 hours after administration, followed by measurement of the serum human RANKL concentration by ELISA. In addition, 24 and 48 hours after administration, the femur bone density was measured with pQCT.
# [3] = tested on: 7-week-old female Fischer rats; assay: Examination with Fischer rats; type: in vivo, rat
# Experimental: GST-RANKL was intraperitoneally administered 3 times to 7-week-old female Fischer rats at 1 mg/kg every 24 hours. The serum and femur were collected from each mouse 1.5 hours after the 3rd administration, followed by comparison with the PBS administration group. The serum of each mouse was subjected to measurement (with the use of an SB-TR102 kit, IDS Ltd.) of the Ca and TRAP-5b concentrations serving as bone resorption markers and the ALP concentration serving as an osteogenesis marker. Each femur was subjected to bone density measurement with pQCT and image analysis with micro CT.
# [4] = tested on: GST-RANKL-administered 7-week-old female C57BL/6N mice; assay: Evaluation of a bone mass increase with low-dose PTH in GST-RANKL mice; type: in vivo, mouse; details: GST-RANKL 1 mg/kg i.p. 2 times
# Experimental: GST-RANKL was intraperitoneally administered 2 times to groups of 7-week-old female C57BL/6N mice at 1 mg/kg every 24 hours. PTH was subcutaneously administered thereto at 40 or 80 μg/kg from 24 hours after the 2nd administration every 24 hours for 10 consecutive days. In addition, PBS was administered to a group serving as the control group for the GST-RANKL and PTH administration groups for comparison. The serum and femur were collected from each mouse 24 hours after the end of administration for 10 days.
# The serum collected from each mouse was subjected to measurement of serum bone resorption markers (Ca and TRAP-5b) and an osteogenesis marker (ALP). Each femur was subjected to measurement of the total bone density, the cortical bone density, the cortical bone thickness, the cortical bone mineral content, and the cortical bone density in the diaphysis with pQCT at points 0.6, 0.8, and 1.0 mm […] the distal growth plate on the proximal side. In addition, image analysis was carried out with micro CT.
# [5] = tested on: GST-RANKL-administered 7-week-old female C57BL/6N mice; assay: Evaluation of an osteoporosis therapeutic agent (risedronate) with GST-RANKL-administered mice; type: in vivo, mouse
# Experimental: GST-RANKL (426 nmol) was intraperitoneally administered 3 times to groups of 7-week-old female C57BL/6N mice (5 to 6 individuals each) every 24 hours. An osteoporosis therapeutic agent (risedronate) was subcutaneously administered at 0.01 mg/kg every 24 hours from 3 days before GST-RANKL administration. Administration of the agent was continued to the end of the experimentation every 24 hours. The serum, femur, and tibia were collected from each mouse 1.5 hours after the 3rd administration of GST-RANKL. Bone resorption parameters (calcium, CTx, and TRAP-5b) and osteogenesis parameters (osteocalcin and ALP) in the serum were measured. The femur bone density was determined with the use of pQCT and micro CT. Measurement values were compared with those for a control group by the Dunnett method for testing.
# mice = assay: Double-dose administration of GST-RANKL at 0.5, 1 and 2 mg/kg; type: in vivo, mouse; details: 2 mg/kg compared with 0.5 mg/kg and 1 mg/kg
# [6] = high dose 426 nmol i.p. 3 times
# [7] = GST-RANKL 426 nmol i.p. 3 times
substance,measurement,setting,value
"GST-RANKL: fused protein of Glutathione S-transferase with human RANKL residues 140-317, expressed in Escherichia coli, 47.0 kDa",abnormal findings and lesions in organs (HE staining),"[1]; 57 and 426 nmol, cerebrum, lungs, heart, liver, thymus, spleen, kidneys, skin",not observed
same,femur bone morphology with micro CT,[1]; high dose 426 nmol,significant bone decreases
same,serum ALP concentration,[1]; high dose 426 nmol,did not vary
same,serum osteocalcin concentration,[1]; high dose 426 nmol,did not vary
same,tibial osteoblast surface area,[1]; high dose 426 nmol,significant osteoblast surface area increase
same,tibial osteoclast number,[1]; high dose 426 nmol,increased
same,tibial trabecular number decrease,[1]; high dose 426 nmol,approximately 50%
same,tibial unit bone mass decrease,[1]; high dose 426 nmol,approximately 50%
same,"serum CTx concentration, fold as high as control",[1]; [6],approximately 1.5 fold
same,"serum TRAP-5b concentration, fold as high as control",[1]; [6],approximately 1.5 fold
same,"serum Ca concentration, fold as high as control","[1]; high dose 426 nmol i.p. 3 times every 24 hours, 1.5 hours after 3rd administration",approximately 1.4 fold
same,femur bone density decrease (pQCT),"[1]; high dose 426 nmol, 0.6 mm from distal growth plate",10%
same,femur bone density decrease (pQCT),"[1]; high dose 426 nmol, 0.8 mm",23%
same,femur bone density decrease (pQCT),"[1]; high dose 426 nmol, 1.0 mm",20%
same,femur bone density (pQCT) vs control,[1]; low dose 57 nmol,no significant difference
same,serum ALP concentration,[1]; low dose 57 nmol,did not vary
same,serum osteocalcin concentration,[1]; low dose 57 nmol,did not vary
same,tibial trabecular number,[1]; low dose 57 nmol,no decrease was observed
same,tibial unit bone mass,[1]; low dose 57 nmol,no decrease was observed
same,serum ALP concentration decrease,[2]; single dose 1 mg/kg,approximately 30%
same,serum Ca concentration,[2]; single dose 1 mg/kg i.p.,no changes
same,serum human RANKL concentration,"[2]; single dose 1 mg/kg i.p., 24 hours later",undetectable
same,time of peak serum human RANKL concentration after administration,"[2]; single dose 1 mg/kg i.p., ELISA",4 h
same,"serum TRAP-5b concentration, fold as high as control","[2]; single dose 1 mg/kg, 12 hours after administration",approximately 1.7 fold
same,femur bone density decrease vs control,"[2]; 24 hours, 0.6 mm",approximately 4%
same,femur bone density decrease vs control,"[2]; 24 hours, 0.8 mm",approximately 9%
same,femur bone density decrease vs control,"[2]; 24 hours, 1.0 mm",approximately 12%
same,femur bone density decrease vs control,"[2]; 48 hours, 0.6 mm",approximately 5%
same,femur bone density decrease vs control,"[2]; 48 hours, 0.8 mm",approximately 9%
same,femur bone density decrease vs control,"[2]; 48 hours, 1.0 mm",approximately 15%
same,serum ALP concentration vs control,[3]; 1 mg/kg i.p. 3 times,no changes
same,serum Ca concentration vs control,[3]; 1 mg/kg i.p. 3 times,no changes
same,serum TRAP-5b concentration vs control,[3]; 1 mg/kg i.p. 3 times,no changes
same,femur bone density decrease,[3]; 3 mm from the distal growth plate,approximately 20%
same,"cortical bone density in the diaphysis, decrease vs PBS control",[4],3%
same,serum alkaline phosphatase concentration vs control,[5]; GST-RANKL 426 nmol,did not change
same,serum osteocalcin concentration vs control,[5]; GST-RANKL 426 nmol,did not change
same,"serum CTx concentration, fold as high as control",[5]; [7],approximately 1.4 fold
same,"serum TRAP-5b concentration, fold as high as control",[5]; [7],approximately 1.5 fold
same,femur bone density decrease vs control,"[5]; GST-RANKL 426 nmol, at 0.6 mm, 0.8 mm and 1.0 mm",approximately 20%
same,bone mass decreasing effects,mice,promoted
